The text below walks through data of ChEMBL document CHEMBL4130460, “Anti-inflammatory Activity of Eudesmane-Type Sesquiterpenoids from Salvia plebeia” (J Nat Prod, 2017).

Activity calls are given as the source filed them. No cut-off for these calls is given here. Some results are limits rather than exact numbers.

Series [1] concerns RAW264.7. As to the kind of experiment: Anti-inflammatory activity in mouse RAW264.7 cells assessed as reduction in LPS-induced NO production preincubated for 30 mins followed by LPS stimulation measured after 24 hrs by Griess assay. The class given is functional, cell-based.
For series [2], the system named is RAW264.7. The series can be described thus: Cytotoxicity against mouse RAW264.7 cells assessed as reduction in cell viability at 50 uM after 24 hrs by MTT assay. The class given is cell-based. To be noted: raw264.7, 24 h. (Tetrazolium assays rely on reduction of a dye to a coloured formazan, in cell work by metabolically active cells.)
Series [3] has as its system RAW264.7. As to the kind of experiment: Inhibition of NF-kappaB in LPS-induced mouse RAW264.7 cells assessed as reduction in iNOS protein expression levels at 5 to 25 uM preincubated for 1 hr followed by LPS stimulation measured after 24 hrs by Western blot analysis. The class given is cell-based. In general terms: A western blot detects proteins with antibodies after separation by electrophoresis.

Series [4] deals with RAW264.7. The series can be described thus: Inhibition of NF-kappaB in LPS-induced mouse RAW264.7 cells assessed as reduction in TNFalpha mRNA levels at 5 to 25 uM preincubated for 1 hr followed by LPS stimulation measured after 24 hrs by RT-PCR analysis. The class given is cell-based.
For series [5], the system named is RAW264.7. The series can be described thus: Inhibition of NF-kappaB in LPS-induced mouse RAW264.7 cells assessed as reduction in COX2 protein expression levels at 5 to 25 uM preincubated for 1 hr followed by LPS stimulation measured after 24 hrs by Western blot analysis. The class given is cell-based.
For series [6], the system named is RAW264.7. As to the kind of experiment: Inhibition of NF-kappaB in LPS-induced mouse RAW264.7 cells assessed as reduction in COX2 mRNA levels at 5 to 25 uM preincubated for 1 hr followed by LPS stimulation measured after 24 hrs by RT-PCR analysis. The class given is cell-based.
Series [7] deals with RAW264.7. The series can be described thus: Inhibition of NF-kappaB in LPS-induced mouse RAW264.7 cells assessed as reduction in IL-1beta mRNA levels preincubated for 1 hr followed by LPS stimulation measured after 24 hrs by RT-PCR analysis. The class given is cell-based.
Series [8] has as its target Transcription factor p65 (Mus musculus) (UniProt Q04207). As to the kind of experiment: Inhibition of NF-kappaB p65 phosphorylation in cytosol of LPS-stimulated mouse RAW264.7 cells at 5 to 25 uM preincubated for 1 hr followed by LPS stimulation for 90 mins by Western blot method. The class given is cell-based.
Series [9] deals with MAP kinase p38 (Mus musculus) (UniProt P47811+O08911+Q9WUI1+Q9Z1B7). As to the kind of experiment: Inhibition of MAPK p38 phosphorylation in LPS-stimulated mouse RAW264.7 cells at 5 to 25 uM preincubated for 1 hr followed by LPS stimulation for 30 mins by Western blot method. The class given is cell-based.
The target of series [10] is T1, NF-kappa-B inhibitor alpha (Mus musculus) (UniProt Q9Z1E3).
T1 sequence (whole entry): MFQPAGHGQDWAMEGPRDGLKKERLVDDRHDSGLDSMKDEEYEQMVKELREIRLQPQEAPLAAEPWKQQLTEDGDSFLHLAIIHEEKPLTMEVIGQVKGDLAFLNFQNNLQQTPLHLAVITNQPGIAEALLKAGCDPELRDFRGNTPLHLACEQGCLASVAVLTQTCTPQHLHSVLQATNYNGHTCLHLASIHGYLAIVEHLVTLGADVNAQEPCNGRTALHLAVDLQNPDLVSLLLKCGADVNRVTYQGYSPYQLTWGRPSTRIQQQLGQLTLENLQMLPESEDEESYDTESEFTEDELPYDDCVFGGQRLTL
The series can be described thus: Inhibition of IkappaBalpha phosphorylation in cytosol of LPS-stimulated mouse RAW264.7 cells at 5 to 25 uM preincubated for 1 hr followed by LPS stimulation for 90 mins by Western blot method. The class given is cell-based.

For series [11], the system named is RAW264.7. As to the kind of experiment: Inhibition of ERK phosphorylation in LPS-stimulated mouse RAW264.7 cells at 5 to 25 uM preincubated for 1 hr followed by LPS stimulation for 30 mins by Western blot method. The class given is cell-based.
Series [12] deals with RAW264.7. The series can be described thus: Inhibition of JNK phosphorylation in LPS-stimulated mouse RAW264.7 cells at 5 to 25 uM preincubated for 1 hr followed by LPS stimulation for 30 mins by Western blot method. The class given is cell-based.
In series [13] the target is Transcription factor p65 (Mus musculus) (UniProt Q04207). As to the kind of experiment: Inhibition of NF-kappaB p65 phosphorylation in nucleus of LPS-stimulated mouse RAW264.7 cells at 5 to 25 uM preincubated for 1 hr followed by LPS stimulation for 90 mins by Western blot method. The class given is cell-based.
Chain of Transcription factor p65 (Mus musculus) (Q04207 whole entry): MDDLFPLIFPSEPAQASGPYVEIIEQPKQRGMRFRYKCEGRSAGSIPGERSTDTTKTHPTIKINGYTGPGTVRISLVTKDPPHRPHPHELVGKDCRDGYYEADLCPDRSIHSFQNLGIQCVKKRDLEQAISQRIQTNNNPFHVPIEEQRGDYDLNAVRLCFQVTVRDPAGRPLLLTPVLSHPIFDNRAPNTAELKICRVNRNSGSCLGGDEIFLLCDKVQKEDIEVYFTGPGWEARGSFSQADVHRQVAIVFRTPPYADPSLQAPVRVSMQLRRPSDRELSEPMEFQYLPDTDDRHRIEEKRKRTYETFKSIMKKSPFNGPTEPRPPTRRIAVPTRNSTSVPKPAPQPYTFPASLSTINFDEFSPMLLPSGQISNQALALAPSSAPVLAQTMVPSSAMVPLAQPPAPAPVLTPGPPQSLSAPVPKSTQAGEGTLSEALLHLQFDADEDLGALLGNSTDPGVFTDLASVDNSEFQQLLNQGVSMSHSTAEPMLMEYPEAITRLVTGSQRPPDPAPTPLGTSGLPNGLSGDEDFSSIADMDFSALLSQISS
The subject of series [14] is RAW264.7. The series can be described thus: Inhibition of NF-kappaB in LPS-induced mouse RAW264.7 cells assessed as reduction in iNOS mRNA levels preincubated for 1 hr followed by LPS stimulation measured after 24 hrs by RT-PCR analysis. The class given is cell-based.
The target in series [15] is T1, NF-kappa-B inhibitor alpha (Mus musculus). As to the kind of experiment: Inhibition of IkappaBalpha phosphorylation in nucleus of LPS-stimulated mouse RAW264.7 cells at 5 to 25 uM preincubated for 1 hr followed by LPS stimulation for 90 mins by Western blot method. The class given is cell-based.
For series [16] the target is unchanged. The series can be described thus: Inhibition of IkappaBalpha phosphorylation in nucleus of LPS-stimulated mouse RAW264.7 cells preincubated for 1 hr followed by LPS stimulation for 90 mins by Western blot method. The class given is cell-based.
For series [17] the target is unchanged. The series can be described thus: Inhibition of IkappaBalpha phosphorylation in cytosol of LPS-stimulated mouse RAW264.7 cells preincubated for 1 hr followed by LPS stimulation for 90 mins by Western blot method. The class given is cell-based.
The target in series [18] is Transcription factor p65 (Mus musculus) (UniProt Q04207). The series can be described thus: Inhibition of NF-kappaB p65 phosphorylation in nucleus of LPS-stimulated mouse RAW264.7 cells preincubated for 1 hr followed by LPS stimulation for 90 mins by Western blot method. The class given is cell-based.
The target is the same in series [19]. As to the kind of experiment: Inhibition of NF-kappaB p65 phosphorylation in cytosol of LPS-stimulated mouse RAW264.7 cells preincubated for 1 hr followed by LPS stimulation for 90 mins by Western blot method. The class given is cell-based.

For the molecule `CC1=C[C@@H](O)[C@@H](O)[C@@]2(C)C[C@@]3(O)OC(=O)C(C)=C3C[C@H]12`, in [1], the IC50 (usually the concentration needed to halve the response being measured) is > 100 µM. Besides, the Activity result in series [2] is listed as “Non-Toxic”.

For the molecule `CO[C@@]12C[C@]3(C)C=CC(=O)[C@H](C)[C@H]3CC1=C(C)C(=O)O2`, in series [3], the inhibition entry was “Active”. In addition, the inhibition result in [4], in series [5], in [6], in series [8], in series [9] and in series [10] was “inactive” throughout. In addition, the inhibition entry in [11], in [12], in series [13] and in series [15] was “inactive” each time. Besides, the inhibition result in series [7] and in series [14] was “Dose-dependent effect” in each case. Moreover, the IC50 in series [1] is 31.2 µM. In [2], the Activity entry is “Non-Toxic”.

With `CC(=O)O[C@H]1C[C@@H](O)[C@@]2(C)C=C3OC(=O)C(C)=C3C[C@@H]2[C@H]1C`, the IC50 in series [1] worked out at 30 µM. For the same molecule, the Activity entry in [2] is “Non-Toxic”.

In the case of `CC1=C2C[C@@H]3[C@@H](C)C(=O)C=C[C@@]3(C)C[C@H]2OC1=O`, the concentration for half-maximal inhibition (IC50) in [1] was found to be 70.2 µM. For the same molecule, the Activity entry in series [2] is “Non-Toxic”.

As to `CC1=C2C[C@H]3[C@](C)(C=C2OC1=O)[C@@H](O)CC[C@]3(C)O`, in [1], the half-maximal inhibitory concentration (IC50) was > 100 µM. Besides, the Activity entry in series [2] is “Non-Toxic”.

On to `CC1=C2C[C@@H]3[C@@H](C)[C@@H](O)C[C@@H](O)[C@@]3(C)C=C2OC1=O`, for which the IC50 in [1] was > 100 µM. Also, the Activity result in [2] is reported as “Non-Toxic”.

With `CC(=O)O[C@H]1C[C@@H](O)[C@@]2(C)C[C@@]3(O)OC(=O)C(C)=C3C[C@@H]2[C@H]1C`, in series [1], the IC50 is > 100 µM. Further, the Activity result in series [2] is reported as “Non-Toxic”.

`CO[C@@]12C[C@]3(C)[C@H](O)C[C@H](O)[C@H](C)[C@H]3CC1=C(C)C(=O)O2`: the concentration for half-maximal inhibition (IC50) in series [1] was > 100 µM. Besides, the Activity entry in series [2] was “Non-Toxic”.

On to `CC1=C2C[C@@H]3[C@@H](C)[C@@H](O)C[C@@H](O)[C@@]3(C)C[C@@]2(O)OC1=O`, for which, in [1], the IC50 is > 100 µM. Moreover, the Activity entry in series [2] is listed as “Non-Toxic”.

Take `CC1=C2C[C@@H]3[C@@H](C)C(=O)C=C[C@@]3(C)C[C@@]2(O)OC1=O`: the IC50 in series [1] amounted to 68.9 µM. Besides, the Activity entry in [2] is on record as “Non-Toxic”.

Consider `CC1=C2C[C@@H]3[C@@](C)(C[C@]2(O)OC1=O)C(=O)C=C[C@@]3(C)O`, for which the concentration for half-maximal inhibition (IC50) in series [1] worked out at 57 µM. Also, the Activity result in [2] is reported as “Non-Toxic”.

`CC(=O)O[C@@H]1C(=O)C=C(C)[C@@H]2CC3=C(C)C(=O)O[C@@]3(O)C[C@@]12C`: the half-inhibitory concentration (IC50) in series [1] is > 100 µM. Moreover, the Activity entry in series [2] is recorded as “Non-Toxic”.

In the case of `CC(=O)O[C@H]1C[C@@H](O)[C@@]2(C)C[C@@]3(O)OC(=O)C(C)=C3[C@H](O)[C@@H]2[C@H]1C`, the IC50 in [1] is > 100 µM. Also, in series [2], the Activity result is recorded as “Non-Toxic”.

As to `CO[C@]12C[C@]3(C)C=CC(=O)[C@H](C)[C@H]3CC1=C(C)C(=O)O2`, the inhibition result in series [3] was “Active”. The inhibition entry in series [4], in series [5], in series [6], in series [9], in [11] and in [12] was “inactive” each time. Moreover, the inhibition result in [16], in [7], in series [17], in series [18], in series [19] and in series [14] was “Dose-dependent effect” in each case. In addition, the IC50 in [1] was found to be 17.9 µM. For the same molecule, in [2], the Activity entry is “Non-Toxic”.

As for `CC1=C2C[C@@H]3[C@](C)(O)[C@@H](O)C[C@@H](O)[C@@]3(C)C=C2OC1=O`, the IC50 in series [1] was > 100 µM. The Activity entry in [2] is “Non-Toxic”.

For the molecule `CO[C@]12C[C@@]3(C)[C@H](OC(C)=O)C(=O)C=C(C)[C@@H]3CC1=C(C)C(=O)O2`, in [1], the IC50 was > 100 µM. Further, the Activity entry in [2] is “Non-Toxic”.

`CO[C@@]12C[C@]3(C)[C@H](O)C[C@H](OC(C)=O)[C@H](C)[C@H]3CC1=C(C)C(=O)O2`: in series [1], the 50% inhibitory concentration (IC50) was found to be 19.9 µM. Also, in [2], the Activity result is recorded as “Non-Toxic”.

On to `CC(=O)OC1=C[C@@](C)(O)[C@@H]2CC3=C(C)C(=O)O[C@@]3(O)C[C@@]2(C)C1=O`, for which the half-maximal inhibitory concentration (IC50) in series [1] is > 100 µM. Also, the Activity result in series [2] is on record as “Non-Toxic”.

On to `CC1=C2CC3=C(C)[C@@H](O)C[C@@H](O)[C@@]3(C)C[C@@]2(O)OC1=O`, for which the IC50 in series [1] was > 100 µM. Besides, in series [2], the Activity entry is “Non-Toxic”.

Turning to `O=c1cc(-c2ccc(O)c(O)c2)oc2cc(O)cc(O)c12` [LUTEOLIN], the 50% inhibitory concentration (IC50) in [1] was 5.6 µM.

In the case of `CC1=C2C[C@H]3[C@](C)(C=C2OC1=O)[C@H](O)CC[C@]3(C)O`, the IC50 in series [1] is > 100 µM. In addition, the Activity entry in series [2] was “Non-Toxic”.
